Values quoted from earlier work in patent US11590127B2, “Gastro-resistant formulation containing posaconazole” (ALFRED E. TIEFENBACHER (GMBH & CO. KG), priority 2015, dated 2023).

- aqueous solubility: low aqueous solubility
- temperature above which it degrades (thermal degradation): above 160 °C
Compound: CC[C@@H]([C@H](C)O)n1ncn(-c2ccc(N3CCN(c4ccc(OC[C@@H]5CO[C@@](Cn6cncn6)(c6ccc(F)cc6F)C5)cc4)CC3)cc2)c1=O [Posaconazole]
